Measured values: PMC11087268, “A folate inhibitor exploits metabolic differences in Pseudomonas aeruginosa for narrow-spectrum targeting” (Nature Microbiology, 2024)

Experiments:
[1] = test system: Escherichia coli MG1655; experiment: MIC against E. coli MG1655 in LB broth; assay type: cell-based; conditions: 16 h, 37 °C, OD600
Description: Overnight cultures were diluted 1:150 in LB broth and added to a 96-well plate. Antibiotics were serially diluted 1:2 and added to columns of the 96-well plate and grown at 37 °C with continuous shaking. Cell growth was measured using optical density at 600 nm (OD600). MIC assays were performed in either BioTek Synergy HT or Tecan InfiniteM200 Pro microplate readers.

[2] = test system: P. aeruginosa PA14; experiment: Growth of P. aeruginosa PA14 in TMI-supplemented media with fluorofolin; assay type: cell-based, Pseudomonas aeruginosa; note: test concentration or dose not given here

Structure (SMILES): Nc1nc(N)c2c(ccc3c2ccn3Cc2ccnc(F)c2)n1 [fluorofolin]
- MIC [1]: 0.625 µg/mL
- OD600 of P. Aeruginosa PA14 ([2]; Fluorofolin + TMI, Time 0 min): 0.00375
- OD600 of P. Aeruginosa PA14 ([2]; Fluorofolin + TMI, Time 64.0617 min): 0.00775
- OD600 of P. Aeruginosa PA14 ([2]; Fluorofolin + TMI, Time 74.7383 min): 0.00825
- OD600 of P. Aeruginosa PA14 ([2]; Fluorofolin + TMI, Time 85.415 min): 0.0086
- OD600 of P. Aeruginosa PA14 ([2]; Fluorofolin + TMI, Time 96.0917 min): 0.0088
- OD600 of P. Aeruginosa PA14 ([2]; Fluorofolin + TMI, Time 106.768 min): 0.00895
- OD600 of P. Aeruginosa PA14 ([2]; Fluorofolin + TMI, Time 117.445 min): 0.00965
- OD600 of P. Aeruginosa PA14 ([2]; Fluorofolin + TMI, Time 128.123 min): 0.00995
- OD600 of P. Aeruginosa PA14 ([2]; Fluorofolin + TMI, Time 138.8 min): 0.0106
- OD600 of P. Aeruginosa PA14 ([2]; Fluorofolin + TMI, Time 149.477 min): 0.01185
- OD600 of P. Aeruginosa PA14 ([2]; Fluorofolin + TMI, Time 160.153 min): 0.0109
- OD600 of P. Aeruginosa PA14 ([2]; Fluorofolin + TMI, Time 170.83 min): 0.01125
- OD600 of P. Aeruginosa PA14 ([2]; Fluorofolin + TMI, Time 181.507 min): 0.01245
- OD600 of P. Aeruginosa PA14 ([2]; Fluorofolin + TMI, Time 192.183 min): 0.01295
- OD600 of P. Aeruginosa PA14 ([2]; Fluorofolin + TMI, Time 202.86 min): 0.0136
- OD600 of P. Aeruginosa PA14 ([2]; Fluorofolin + TMI, Time 213.537 min): 0.01355
- OD600 of P. Aeruginosa PA14 ([2]; Fluorofolin + TMI, Time 224.213 min): 0.01385
- OD600 of P. Aeruginosa PA14 ([2]; Fluorofolin + TMI, Time 234.89 min): 0.0143
- OD600 of P. Aeruginosa PA14 ([2]; Fluorofolin + TMI, Time 245.567 min): 0.0154
- OD600 of P. Aeruginosa PA14 ([2]; Fluorofolin + TMI, Time 256.243 min): 0.01575
- OD600 of P. Aeruginosa PA14 ([2]; Fluorofolin + TMI, Time 266.922 min): 0.0155
- OD600 of P. Aeruginosa PA14 ([2]; Fluorofolin + TMI, Time 277.598 min): 0.0159
- OD600 of P. Aeruginosa PA14 ([2]; Fluorofolin + TMI, Time 288.275 min): 0.01755
- OD600 of P. Aeruginosa PA14 ([2]; Fluorofolin + TMI, Time 298.952 min): 0.01775
- OD600 of P. Aeruginosa PA14 ([2]; Fluorofolin + TMI, Time 309.628 min): 0.01825
- OD600 of P. Aeruginosa PA14 ([2]; Fluorofolin + TMI, Time 320.305 min): 0.0182
- OD600 of P. Aeruginosa PA14 ([2]; Fluorofolin + TMI, Time 330.982 min): 0.0183
- OD600 of P. Aeruginosa PA14 ([2]; Fluorofolin + TMI, Time 341.658 min): 0.0174
- OD600 of P. Aeruginosa PA14 ([2]; Fluorofolin + TMI, Time 352.335 min): 0.01685
- OD600 of P. Aeruginosa PA14 ([2]; Fluorofolin + TMI, Time 363.012 min): 0.01765
- OD600 of P. Aeruginosa PA14 ([2]; Fluorofolin + TMI, Time 373.688 min): 0.01775
- OD600 of P. Aeruginosa PA14 ([2]; Fluorofolin + TMI, Time 384.365 min): 0.01795
- OD600 of P. Aeruginosa PA14 ([2]; Fluorofolin + TMI, Time 395.042 min): 0.01805
- OD600 of P. Aeruginosa PA14 ([2]; Fluorofolin + TMI, Time 405.718 min): 0.01805
- OD600 of P. Aeruginosa PA14 ([2]; Fluorofolin + TMI, Time 416.395 min): 0.01825
- OD600 of P. Aeruginosa PA14 ([2]; Fluorofolin + TMI, Time 427.072 min): 0.01805
- OD600 of P. Aeruginosa PA14 ([2]; Fluorofolin + TMI, Time 437.748 min): 0.01825
- OD600 of P. Aeruginosa PA14 ([2]; Fluorofolin + TMI, Time 448.425 min): 0.018
- OD600 of P. Aeruginosa PA14 ([2]; Fluorofolin + TMI, Time 459.102 min): 0.0175
- OD600 of P. Aeruginosa PA14 ([2]; Fluorofolin + TMI, Time 469.78 min): 0.01855
- OD600 of P. Aeruginosa PA14 ([2]; Fluorofolin + TMI, Time 480.457 min): 0.0181
- OD600 of P. Aeruginosa PA14 ([2]; Fluorofolin + TMI, Time 491.133 min): 0.01785
- OD600 of P. Aeruginosa PA14 ([2]; Fluorofolin + TMI, Time 501.81 min): 0.01825
- OD600 of P. Aeruginosa PA14 ([2]; Fluorofolin + TMI, Time 512.487 min): 0.0184
- OD600 of P. Aeruginosa PA14 ([2]; Fluorofolin + TMI, Time 523.163 min): 0.01965
- OD600 of P. Aeruginosa PA14 ([2]; Fluorofolin + TMI, Time 533.84 min): 0.0189
- OD600 of P. Aeruginosa PA14 ([2]; Fluorofolin + TMI, Time 544.517 min): 0.0184
- OD600 of P. Aeruginosa PA14 ([2]; Fluorofolin + TMI, Time 555.193 min): 0.01805
- OD600 of P. Aeruginosa PA14 ([2]; Fluorofolin + TMI, Time 565.87 min): 0.0187
- OD600 of P. Aeruginosa PA14 ([2]; Fluorofolin + TMI, Time 576.547 min): 0.01815
- OD600 of P. Aeruginosa PA14 ([2]; Fluorofolin, Time 0 min): -0.00105
- OD600 of P. Aeruginosa PA14 ([2]; Fluorofolin, Time 64.0617 min): 0.00425
- OD600 of P. Aeruginosa PA14 ([2]; Fluorofolin, Time 74.7383 min): 0.0047
- OD600 of P. Aeruginosa PA14 ([2]; Fluorofolin, Time 85.415 min): 0.00495
- OD600 of P. Aeruginosa PA14 ([2]; Fluorofolin, Time 96.0917 min): 0.00565
- OD600 of P. Aeruginosa PA14 ([2]; Fluorofolin, Time 106.768 min): 0.006
